Patent US20170360875A1 (priority 2014, published 2017)
Several values for one entry are separate records, joined by “and”; a condition that tells them apart may be missing. Equal values may be shown once. Read-outs that look alike come from different tables or passages of the source. Ends that are not written are not given here.

What was measured:
[1] = molecular target: Influenza A/MAL/NY/6750/78 H2N2 virus; test: reverse ELISA; PAP IC without inhibitor on plate coated with IAV 1:10
[2] = molecular target: Influenza A/MAL/NY/6750/78 H2N2 virus; test: reverse ELISA; PAP IC without inhibitor on plate coated with IAV 1:100
[3] = molecular target: hepatitis C virus core protein (hepatitis C virus); test: reverse ELISA; PAP IC without inhibitor on plate coated with 5 µg HCV core protein; average of three experiments
[4] = molecular target: human C1q (Quidel Corp.) (human) (UniProt P02745); test: reverse ELISA; PAP IC without inhibitor on C1q-coated plate
hepatitis A virus [5] = test: reverse ELISA; PAP IC without inhibitor on plate coated with HAV 1:10; average of three experiments
FcγIIa (H131 allele) [6] = molecular target: FcγIIa (H131 allele) (UniProt P12318)
hepatitis A virus [7] = test: reverse ELISA; PAP IC without inhibitor on plate coated with HAV 1:100; average of three experiments
FcγIIa (R131 allele) = FcγIIa (R131 allele) (UniProt P12318)
FcγIIIb (NA2) [8] = molecular target: FcγIIIb (NA2) (UniProt O75015); test: reverse ELISA; PAP IC without inhibitor on plate coated with FcγIIIb (NA2)
FcγIIIa [9] = molecular target: FcγIIIa (UniProt P08637); test: reverse ELISA; PAP IC without inhibitor on plate coated with FcγIIIa
FcγIIb [10] = molecular target: FcγIIb (UniProt P31994); test: reverse ELISA; PAP IC without inhibitor on plate coated with FcγIIb
[11] = molecular target: recombinant Sudan Ebolavirus glycoprotein (IBT Bioservices, Catalogue Number 0501-015) (Sudan Ebolavirus)
FcγIIb [12] = molecular target: FcγIIb (UniProt P31994); test: reverse ELISA; PAP IC without inhibitor on plate coated with FcγIIb/c
FcγI [13] = molecular target: FcγI (UniProt P12314); test: reverse ELISA; PAP IC without inhibitor on plate coated with FcγI
C1q = type: binding, human
[14] = tested on: hepatitis C virus core protein; type: binding; conditions: NB406 10 mg/mL
FcγIIIa [15] = type: binding
FcγIIa (H131 allele) [16] = type: binding, human
[17] = tested on: Influenza A/MAL/NY/6750/78 H2N2 virus; conditions: for Percent Inhibition, 1:10 IAV / Percent Inhibition, 1:100 IAV: /MAL/NY/6750/78 H2N2 virus
[18] = tested on: Sudan Ebolavirus Glycoprotein (GP); type: binding
FcγIIb/c = type: binding
FcγIIIb (NA2) [19] = type: binding
FcγI [20] = type: binding
FcγIIb [21] = type: binding
hepatitis A virus [22] = type: binding; conditions: for 1:10 HAV (OD 405 nm): 1:10 virus dilution, IC alone 0.997; for 1:100 HAV (OD 405 nm): 1:100 virus dilution, IC alone 0.953
hepatitis A virus [23] = test: reverse ELISA control; HRP without antibody on plate coated with HAV 1:10
[24] = molecular target: Influenza A/MAL/NY/6750/78 H2N2 virus; test: reverse ELISA control; HRP without antibody on plate coated with IAV 1:10
[25] = molecular target: hepatitis C virus core protein (hepatitis C virus); test: reverse ELISA control; HRP without antibody on plate coated with 5 µg HCV core protein
hepatitis A virus [26] = test: reverse ELISA control; HRP without antibody on plate coated with HAV 1:100
[27] = molecular target: Influenza A/MAL/NY/6750/78 H2N2 virus; test: reverse ELISA control; HRP without antibody on plate coated with IAV 1:100
[28] = NB406 10 mg/mL, average of three experiments

Chain of UniProt P31994 (P31994 46-217 limits assumed): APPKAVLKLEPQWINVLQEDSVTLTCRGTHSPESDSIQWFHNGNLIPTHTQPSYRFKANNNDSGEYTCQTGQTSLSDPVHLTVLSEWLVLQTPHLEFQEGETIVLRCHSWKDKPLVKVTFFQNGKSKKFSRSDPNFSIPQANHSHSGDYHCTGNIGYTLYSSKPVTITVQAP
Chain of UniProt P08637 (P08637 17-208): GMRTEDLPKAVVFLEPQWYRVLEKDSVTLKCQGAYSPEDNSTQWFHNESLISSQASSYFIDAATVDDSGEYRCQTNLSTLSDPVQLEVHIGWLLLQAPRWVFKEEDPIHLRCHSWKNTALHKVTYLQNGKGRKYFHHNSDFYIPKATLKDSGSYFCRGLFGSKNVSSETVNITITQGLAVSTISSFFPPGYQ
Chain of UniProt O75015 (O75015 17-200 N65S): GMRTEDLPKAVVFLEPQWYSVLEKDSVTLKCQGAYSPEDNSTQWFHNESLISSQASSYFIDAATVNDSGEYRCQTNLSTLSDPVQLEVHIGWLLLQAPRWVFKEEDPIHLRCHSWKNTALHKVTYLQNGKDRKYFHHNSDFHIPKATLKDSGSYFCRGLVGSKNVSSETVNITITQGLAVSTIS
Chain of UniProt P12314 (P12314 16-288 limits assumed): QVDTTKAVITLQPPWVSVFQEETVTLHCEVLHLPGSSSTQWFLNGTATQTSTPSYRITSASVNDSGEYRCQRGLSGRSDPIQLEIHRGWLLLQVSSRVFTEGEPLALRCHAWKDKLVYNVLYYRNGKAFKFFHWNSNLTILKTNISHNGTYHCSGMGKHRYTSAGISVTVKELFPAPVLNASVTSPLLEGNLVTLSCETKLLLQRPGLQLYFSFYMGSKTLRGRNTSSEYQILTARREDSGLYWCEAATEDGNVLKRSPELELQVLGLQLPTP
Chain of UniProt P02745 (P02745 23-245 limits assumed, chain 1 of 3): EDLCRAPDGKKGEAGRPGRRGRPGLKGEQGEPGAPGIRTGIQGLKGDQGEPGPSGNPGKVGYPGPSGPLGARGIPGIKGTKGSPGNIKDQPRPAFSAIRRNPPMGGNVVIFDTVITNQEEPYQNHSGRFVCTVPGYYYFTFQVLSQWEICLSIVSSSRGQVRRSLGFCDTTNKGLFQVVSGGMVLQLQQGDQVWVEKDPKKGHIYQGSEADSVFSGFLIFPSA
Chain of UniProt P02745 (P02746 28-253 limits assumed, chain 2 of 3, further chain): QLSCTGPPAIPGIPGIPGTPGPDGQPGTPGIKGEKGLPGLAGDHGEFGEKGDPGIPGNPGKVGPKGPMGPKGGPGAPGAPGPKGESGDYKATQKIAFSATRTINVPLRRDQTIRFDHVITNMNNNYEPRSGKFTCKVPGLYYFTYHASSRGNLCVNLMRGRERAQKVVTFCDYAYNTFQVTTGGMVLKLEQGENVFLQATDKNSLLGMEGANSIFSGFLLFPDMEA
Chain of UniProt P02745 (P02747 29-245 limits assumed, chain 3 of 3, further chain): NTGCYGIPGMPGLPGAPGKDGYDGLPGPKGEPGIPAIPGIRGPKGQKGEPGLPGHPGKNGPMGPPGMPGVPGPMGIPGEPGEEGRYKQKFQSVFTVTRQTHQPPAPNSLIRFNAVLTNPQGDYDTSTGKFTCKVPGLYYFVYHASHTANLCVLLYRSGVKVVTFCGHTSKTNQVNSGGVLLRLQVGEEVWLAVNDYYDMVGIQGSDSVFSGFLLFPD

preformed immune complex of peroxidase-rabbit anti-peroxidase IgG (PAP complex) (from UniProt P00433 31-338)
OD 405 nm [1]: 1.94 OD 405 nm
OD 405 nm [2]: 1.87 OD 405 nm
OD 405 nm [3]: 2.75 OD 405 nm
OD 405 nm [4]: 2.35 OD 405 nm
OD 405 nm (hepatitis A virus [5]): 0.997 OD 405 nm
OD 405 nm (FcγIIa (H131 allele) [6]): 3.51 OD 405 nm
OD 405 nm (hepatitis A virus [7]): 0.953 OD 405 nm
OD405 (FcγIIa (R131 allele)): 1.6 OD405
OD 405 nm (FcγIIIb (NA2) [8]): 3.06 OD 405 nm
OD405 (FcγIIIa [9]): 1.59 OD405
OD405 (FcγIIb [10]): 1.39 OD405
OD 405 nm [11]: 1.61 OD 405 nm and 1.38 OD 405 nm and 1.31 OD 405 nm
OD 405 nm (FcγIIb [12]): 2.22 OD 405 nm
OD 405 nm (FcγI [13]): 2.33 OD 405 nm

CC(C)C[C@@H]1NC(=O)[C@H](Cc2c[nH]cn2)NC(=O)[C@H](Cc2c[nH]c3ccccc23)NC(=O)[C@H](C)NC(=O)[C@@H](NC(=O)[C@H](CC(=O)O)NC(=O)[C@@H]2CCCN2C(=O)[C@@H]2CCCN2C(=O)[C@H](C)N)CSSC[C@@H](C(=O)N[C@H](C(=O)O)[C@@H](C)O)NC(=O)[C@H](Cc2c[nH]c3ccccc23)NC(=O)[C@H](C(C)C)NC(=O)[C@H](CC(C)C)NC(=O)[C@H](CCC(=O)O)NC(=O)CNC1=O [SEQ ID NO:20]
OD 405 nm (C1q): 0.389
inhibition of C1q binding (rank in words) (C1q): greatest inhibition of C1q binding
Percent Inhibition, 5 μg HCV Core Protein [14]: 89.7%
5 μg HCV Core Protein (OD 405 nm) ([14]; IC alone 2.752, average of three experiments): 0.283
OD405 FcγIIIa (FcγIIIa [15]): 0.670
% inhibition of IC binding, FcγIIa* (H131 allele) (FcγIIa (H131 allele) [16]): 94%
FcγIIa* (H131 allele) (read at 405 nm) (FcγIIa (H131 allele) [16]): 0.209
inhibited binding of FcγRIIa to immune complexed IgG Fc (FcγIIa (H131 allele) [16]): more than 70%
prevention of binding of IC to the influenza virus (in words) [17]: can effectively prevent the binding of IC to the influenza virus
Percent Inhibition, 1:10 IAV ([17]; 0.37 mg/mL): 63.5%
Percent Inhibition, 1:100 IAV ([17]; 0.37 mg/mL): 61.6%
Percent Inhibition, 1:10 IAV ([17]; 1.11 mg/mL): 89.5%
Percent Inhibition, 1:100 IAV ([17]; 1.11 mg/mL): 88.7%
Percent Inhibition, 1:10 IAV ([17]; 3.33 mg/mL): 96.6%
Percent Inhibition, 1:100 IAV ([17]; 3.33 mg/mL): 96.0%
Percent Inhibition, 1:10 IAV ([17]; 10 mg/mL): 97.6%
Percent Inhibition, 1:100 IAV ([17]; 10 mg/mL): 97.0%
1 ug/mL GP (OD read at 405 nm) [18]: 0.042 and 0.053 and 0.071
3 ug/mL GP (OD read at 405 nm) [18]: 0.042 and 0.046 and 0.081
Percent Inhibition, 1 ug/mL GP [18]: 96.8% and 96.0% and 94.6%
Percent Inhibition, 3 ug/mL GP [18]: 96.9% and 96.7% and 94.1%
Percent Inhibition, 10 ug/mL GP [18]: 97.1% and 96.4% and 94.1%
prevention of binding of IC to the Ebolavirus glycoprotein (in words) [18]: can effectively prevent the binding of IC to the Ebolavirus glycoprotein
% inhibition of IC binding, FcγIIb/c (FcγIIb/c): 88%
FcγIIb/c (read at 405 nm) (FcγIIb/c): 0.266
inhibited binding of FcγRIIb to immune complexed IgG Fc (FcγIIb/c): more than 70%
prevention of binding of IC to the Ebola virus (in words) (Sudan Ebolavirus (SEBOV)): can effectively prevent the binding of IC to the Ebola virus
Percent Inhibition, 1:100 SEV (Sudan Ebolavirus (SEBOV); 1 mg/mL): 77.6%
Percent Inhibition, 1:1000 SEV (Sudan Ebolavirus (SEBOV); 1 mg/mL): 64.8%
Percent Inhibition, 1:10000 SEV (Sudan Ebolavirus (SEBOV); 1 mg/mL): 58.6%
Percent Inhibition, 1:100 SEV (Sudan Ebolavirus (SEBOV); 3 mg/mL): 95.1%
Percent Inhibition, 1:1000 SEV (Sudan Ebolavirus (SEBOV); 3 mg/mL): 94.6%
Percent Inhibition, 1:10000 SEV (Sudan Ebolavirus (SEBOV); 3 mg/mL): 94.6%
Percent Inhibition, 1:100 SEV (Sudan Ebolavirus (SEBOV); 10 mg/mL): 96.6%
Percent Inhibition, 1:1000 SEV (Sudan Ebolavirus (SEBOV); 10 mg/mL): 96.3%
Percent Inhibition, 1:10000 SEV (Sudan Ebolavirus (SEBOV); 10 mg/mL): 96.3%
% inhibition of IC binding, FcγIIIb (NA2) (FcγIIIb (NA2) [19]): 91%
FcγIIIb (NA2) (read at 405 nm) (FcγIIIb (NA2) [19]): 0.266
% inhibition of IC binding, FcγI (FcγI [20]): 89%
FcγI (read at 405 nm) (FcγI [20]): 0.264
OD405 FcγIIb (FcγIIb [21]): 0.496
1:10 HAV (OD 405 nm) (hepatitis A virus [22]; NB406 1.11 mg/mL): 0.762
1:100 HAV (OD 405 nm) (hepatitis A virus [22]; NB406 1.11 mg/mL): 0.774
1:10 HAV (OD 405 nm) (hepatitis A virus [22]; NB406 3.33 mg/mL): 0.305
1:100 HAV (OD 405 nm) (hepatitis A virus [22]; NB406 3.33 mg/mL): 0.155
1:10 HAV (OD 405 nm) (hepatitis A virus [22]; [28]): 0.050
1:100 HAV (OD 405 nm) (hepatitis A virus [22]; [28]): 0.055
prevention of binding of IC to the hepatitis A virus (in words) (hepatitis A virus [22]; conclusion from Table 5): can effectively prevent the binding of IC to the hepatitis A virus

APPCARHLGELVWCT (cysteine pairing not given here) [SEQ ID NO:16]
OD 405 nm (C1q): 0.567
inhibition of C1q binding (rank in words) (C1q): next best result
OD405 FcγIIIa (FcγIIIa [15]): 0.709
OD405 FcγIIb (FcγIIb [21]): 0.768

Asp-Cys-Ala-Phe-His-Leu-Gly-Glu-Leu-Val-Trp-Cys-Thr [SEQ ID NO:3]
OD 405 nm (C1q): 0.859
OD405 FcγIIIa (FcγIIIa [15]): 0.810
OD405 FcγIIb (FcγIIb [21]): 0.510

APPCAFHLGELVWCT (cysteine pairing not given here) [SEQ ID NO:18]
OD 405 nm (C1q): 0.983
OD405 FcγIIIa (FcγIIIa [15]): 0.880
OD405 FcγIIb (FcγIIb [21]): 0.380

APPCAWHLGELVWCT (cysteine pairing not given here) [SEQ ID NO:14]
OD 405 nm (C1q): 1.148
OD405 FcγIIIa (FcγIIIa [15]): 0.530
OD405 FcγIIb (FcγIIb [21]): 0.562

Asp-Cys-Ala-Trp-His-Leu-Gly-Glu-Leu-Val-Trp-Cys-Thr [SEQ ID NO:2]
OD 405 nm (C1q): 1.100
OD405 FcγIIIa (FcγIIIa [15]): 0.741
OD405 FcγIIb (FcγIIb [21]): 0.532

horseradish peroxidase (HRP), Sigma-Aldrich P6782 (from UniProt P00433 31-338) (enzyme)
OD 405 nm (hepatitis A virus [23]): 0.117 OD 405 nm
OD 405 nm [24]: 0.163 OD 405 nm
OD 405 nm [25]: 0.172 OD 405 nm
OD 405 nm (hepatitis A virus [26]): 0.138 OD 405 nm
OD 405 nm [27]: 0.178 OD 405 nm
